We go through 24 molecules from US20070213359A1 (ACADIA Pharmaceuticals Inc., priority 2005, published 2007).

T1 sequence (Q92847 whole entry): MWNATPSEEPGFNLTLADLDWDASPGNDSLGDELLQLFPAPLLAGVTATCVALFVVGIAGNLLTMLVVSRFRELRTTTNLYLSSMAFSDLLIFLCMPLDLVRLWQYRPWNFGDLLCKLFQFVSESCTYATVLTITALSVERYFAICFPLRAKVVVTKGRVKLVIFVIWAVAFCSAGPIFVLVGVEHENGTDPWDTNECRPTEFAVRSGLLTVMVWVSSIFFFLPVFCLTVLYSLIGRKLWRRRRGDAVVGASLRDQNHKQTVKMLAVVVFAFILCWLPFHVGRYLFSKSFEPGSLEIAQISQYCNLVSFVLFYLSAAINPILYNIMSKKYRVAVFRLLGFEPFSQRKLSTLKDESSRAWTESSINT

One assay addresses T1, GHSR1a receptor (Homo sapiens, UniProt Q92847).
T1 construct: expressed in transfected cells; host or cells: HEK293 (membranes)
In words: 125I-Ghrelin binding assay. The following applies: displacement of 125I-ghrelin (0.053 nM), membranes of HEK293 cells transfected with GHSR1a; Cheng-Prussoff; '—' not defined; read-out: Binding pKi (converted).
Turning to `CC(=O)c1cn(CCCN2C3CCC2CC(CC(=O)c2ccccc2)C3)c2c(C)cccc12` (stereo not drawn), the Ki is 200 nM.

As for `CCCCC[C@H]1C[C@H]2CC[C@@H](C1)N2CCCn1cc(C(C)=O)c2cccc(Br)c21`, the Ki was 158 nM.

With `COc1cccc2c(C(C)=O)cn(CCCN3CCCN(Cc4ccc(F)cc4)CC3)c12`, the Ki was 15.8 nM.

With `CCc1cccc2c(C(C)=O)cn(CCCN3CCC(Oc4cccc(Cl)c4)CC3)c12`, the Ki was 31.6 nM.

For the molecule `COc1cccc2c(C(=O)c3ccccc3)cn(CCCN3C4CCC3CC(Oc3ccc(F)cc3)C4)c12` (stereo not drawn), the Ki was 158 nM.

With `COc1cccc2c(C(C)=O)cn(CCCN3C4CCC3CC(Oc3ccc(Cl)cc3)C4)c12` (stereo not drawn), the Ki was 501 nM.

`COc1cccc2c(C(C)=O)cn(CCCN3CCN(c4ccc(C#N)cc4)CC3)c12`: the Ki is 631 nM.

In the case of `COc1cccc2c(C(=O)Cc3ccccc3)cn(CCCN3C4CCC3CC(CC(=O)c3ccc(Cl)cc3)C4)c12` (stereo not drawn), the Ki was 31.6 nM.

`CC(=O)c1c(C)n(CCCN2C3CCC2CC(CCc2ccc(Cl)cc2)C3)c2c(Br)cccc12` (stereo not drawn): the Ki is 316 nM.

For `CC(=O)c1cn(CCCN2CCC(Oc3ccccc3Cl)CC2)c2c(Br)cccc12`, the Ki was 126 nM.

Regarding `COc1cccc2c(C(=O)c3ccccc3)cn(CCCN3CCN(CCOc4ccccc4)CC3)c12`, the Ki was 251 nM.

On to `COc1cccc2c(C(=O)Cc3ccccc3)cn(CCCN3CCN(CCOc4ccccc4)CC3)c12`, for which the Ki was 39.8 nM.

Take `COc1cccc2c(C(C)=O)cn(CCCN3CCC(Oc4ccccc4Cl)CC3)c12`: the Ki was 794 nM.

Consider `CC(=O)c1cn(CCCN2CCC(Oc3cccc(Cl)c3)CC2)c2ncccc12`, for which the Ki was 316 nM.

Take `CCCCC1CCN(CCCn2cc(C(=O)NCc3cccc(C)c3)c3cccc(OC)c32)CC1`: the Ki was 316 nM.

`COc1cccc2c(C(C)=O)cn(CCCN3CCN(c4ccc(F)cc4)CC3)c12`: the Ki was 501 nM.

Consider `CC(=O)c1cn(CCCN2C3CCC2CC(Oc2ccc(F)cc2)C3)c2ncccc12` (stereo not drawn), for which the Ki is 501 nM.

On to `CCCCC1CCN(CCCn2cc(C(C)=O)c3cccc(Br)c32)CC1`, for which the Ki was 158 nM.

Consider `COc1cccc2c(C(C)=O)cn(CCCN3CCN(Oc4ccccc4Cl)CC3)c12`, for which the Ki was 316 nM.

For the molecule `CC(=O)c1cn(CCCN2C3CCC2CC(Oc2ccccc2Cl)C3)c2c(C#N)cccc12` (stereo not drawn), the Ki was 200 nM.

For `CC(=O)c1cn(CCCN2CCC(Oc3ccccc3Cl)CC2)c2c(C)cccc12`, the Ki was 631 nM.

As to `CC(=O)c1cn(CCCN2CCC(Oc3cccc(Cl)c3)CC2)c2c(Cl)cccc12`, the Ki was 100 nM.

Consider `CCCCC1CCN(CCCn2cc(C(C)=O)c3cccc(OC)c32)CC1`, for which the Ki was 1580 nM.

As to `CCc1cccc2c(C(C)=O)cn(CCCN3C4CCC3CC(CCc3ccc(Cl)cc3)C4)c12` (stereo not drawn), the Ki is 100 nM.

A further assay deals with Ghrelin receptor (Homo sapiens, UniProt Q92847). In words: Receptor Selection and Amplification Technology (R-SAT) assay. Format: cell-based. The arrangement: expressed in transfected cells; host or cells: NIH3T3. The following applies: […]; '—' not defined (nd used separately); read-out: RSAT pIC50 (converted).
Sequence of Ghrelin receptor (Q92847 whole entry): as above
As for `COc1cccc2c(C(=O)c3ccccc3)cn(CCCN3C4CCC3CC(Oc3ccc(F)cc3)C4)c12` (stereo not drawn), the IC50 was 12.6 nM.

Turning to `COc1cccc2c(C(=O)Cc3ccccc3)cn(CCCN3C4CCC3CC(CC(=O)c3ccc(Cl)cc3)C4)c12` (stereo not drawn), the IC50 is 12.6 nM.

Regarding `COc1cccc2c(C(=O)c3ccccc3)cn(CCCN3CCN(CCOc4ccccc4)CC3)c12`, the IC50 is 12.6 nM.

As to `COc1cccc2c(C(=O)Cc3ccccc3)cn(CCCN3CCN(CCOc4ccccc4)CC3)c12`, the IC50 is 12.6 nM.

For `CCCCC1CCN(CCCn2cc(C(=O)NCc3cccc(C)c3)c3cccc(OC)c32)CC1`, the IC50 was 15.8 nM.

Still in this assay, the particulars now being: negative logarithm of ligand concentration causing 50% inhibition of constitutive receptor response; transfected NIH3T3 cells; '—' not defined (nd used separately); read-out: RSAT pIC50 (converted).
On to `CC(=O)c1cn(CCCN2C3CCC2CC(CC(=O)c2ccccc2)C3)c2c(C)cccc12` (stereo not drawn), for which the IC50 was 0.794 nM.

On to `CCCCC[C@H]1C[C@H]2CC[C@@H](C1)N2CCCn1cc(C(C)=O)c2cccc(Br)c21`, for which the IC50 is 1.26 nM.

`COc1cccc2c(C(C)=O)cn(CCCN3CCCN(Cc4ccc(F)cc4)CC3)c12`: the IC50 is 1.26 nM.

`CCc1cccc2c(C(C)=O)cn(CCCN3CCC(Oc4cccc(Cl)c4)CC3)c12`: the IC50 is 1.58 nM.

For the molecule `COc1cccc2c(C(C)=O)cn(CCCN3C4CCC3CC(Oc3ccc(Cl)cc3)C4)c12` (stereo not drawn), the IC50 was 12.6 nM.

Turning to `COc1cccc2c(C(C)=O)cn(CCCN3CCN(c4ccc(C#N)cc4)CC3)c12`, the IC50 was 12.6 nM.

For the molecule `CC(=O)c1c(C)n(CCCN2C3CCC2CC(CCc2ccc(Cl)cc2)C3)c2c(Br)cccc12` (stereo not drawn), the IC50 was 12.6 nM.

As to `CC(=O)c1cn(CCCN2CCC(Oc3ccccc3Cl)CC2)c2c(Br)cccc12`, the IC50 was 12.6 nM.

Consider `COc1cccc2c(C(C)=O)cn(CCCN3CCC(Oc4ccccc4Cl)CC3)c12`, for which the IC50 was 15.8 nM.

Turning to `CC(=O)c1cn(CCCN2CCC(Oc3cccc(Cl)c3)CC2)c2ncccc12`, the IC50 is 15.8 nM.

Turning to `COc1cccc2c(C(C)=O)cn(CCCN3CCN(c4ccc(F)cc4)CC3)c12`, the IC50 is 15.8 nM.

On to `CC(=O)c1cn(CCCN2C3CCC2CC(Oc2ccc(F)cc2)C3)c2ncccc12` (stereo not drawn), for which the IC50 is 15.8 nM.

In the case of `CCCCC1CCN(CCCn2cc(C(C)=O)c3cccc(Br)c32)CC1`, the IC50 is 20 nM.

For the molecule `COc1cccc2c(C(C)=O)cn(CCCN3CCN(Oc4ccccc4Cl)CC3)c12`, the IC50 was 20 nM.

In the case of `CC(=O)c1cn(CCCN2C3CCC2CC(Oc2ccccc2Cl)C3)c2c(C#N)cccc12` (stereo not drawn), the IC50 is 20 nM.

Turning to `CC(=O)c1cn(CCCN2CCC(Oc3ccccc3Cl)CC2)c2c(C)cccc12`, the IC50 was 20 nM.

Regarding `CC(=O)c1cn(CCCN2CCC(Oc3cccc(Cl)c3)CC2)c2c(Cl)cccc12`, the IC50 was 20 nM.

On to `CCCCC1CCN(CCCn2cc(C(C)=O)c3cccc(OC)c32)CC1`, for which the IC50 was 20 nM.

For the molecule `CCc1cccc2c(C(C)=O)cn(CCCN3C4CCC3CC(CCc3ccc(Cl)cc3)C4)c12` (stereo not drawn), the IC50 was 20 nM.

Still in this assay, the particulars now being: percent inhibition at saturating ligand, normalized to reference ligand Substance P analog = 100%.
For the molecule `COc1cccc2c(C(C)=O)cn(CCCN3CCCN(Cc4ccc(F)cc4)CC3)c12`, the “RSAT Eff(%)” value came to 130%.

For the molecule `COc1cccc2c(C(C)=O)cn(CCCN3C4CCC3CC(Oc3ccc(Cl)cc3)C4)c12` (stereo not drawn), the “RSAT Eff(%)” value came out at 113%.

For `COc1cccc2c(C(C)=O)cn(CCCN3CCC(Oc4ccccc4Cl)CC3)c12`, the “RSAT Eff(%)” value is given as 98%.

Staying with this assay, now noted: percent inhibition at saturating ligand, normalized to reference ligand Substance P analog = 100%; read-out: RSAT Eff(%).
As to `CC(=O)c1cn(CCCN2C3CCC2CC(CC(=O)c2ccccc2)C3)c2c(C)cccc12` (stereo not drawn), the Emax turned out to be 91%.

For `CCCCC[C@H]1C[C@H]2CC[C@@H](C1)N2CCCn1cc(C(C)=O)c2cccc(Br)c21`, the Emax was found to be 81%.

For the molecule `CCc1cccc2c(C(C)=O)cn(CCCN3CCC(Oc4cccc(Cl)c4)CC3)c12`, the Emax stood at 118%.

Turning to `COc1cccc2c(C(C)=O)cn(CCCN3CCN(c4ccc(C#N)cc4)CC3)c12`, the Emax came out at 90%.

For `CC(=O)c1c(C)n(CCCN2C3CCC2CC(CCc2ccc(Cl)cc2)C3)c2c(Br)cccc12` (stereo not drawn), the Emax was 69%.

Turning to `CC(=O)c1cn(CCCN2CCC(Oc3ccccc3Cl)CC2)c2c(Br)cccc12`, the Emax was 96%.

`CC(=O)c1cn(CCCN2CCC(Oc3cccc(Cl)c3)CC2)c2ncccc12`: the Emax was determined as 124%.

Consider `COc1cccc2c(C(C)=O)cn(CCCN3CCN(c4ccc(F)cc4)CC3)c12`, for which the Emax came to 95%.

For `CC(=O)c1cn(CCCN2C3CCC2CC(Oc2ccc(F)cc2)C3)c2ncccc12` (stereo not drawn), the Emax amounted to 77%.

On to `CCCCC1CCN(CCCn2cc(C(C)=O)c3cccc(Br)c32)CC1`, for which the Emax turned out to be 87%.

In the case of `COc1cccc2c(C(C)=O)cn(CCCN3CCN(Oc4ccccc4Cl)CC3)c12`, the Emax worked out at 100%.

On to `CC(=O)c1cn(CCCN2C3CCC2CC(Oc2ccccc2Cl)C3)c2c(C#N)cccc12` (stereo not drawn), for which the Emax was found to be 83%.

With `CC(=O)c1cn(CCCN2CCC(Oc3ccccc3Cl)CC2)c2c(C)cccc12`, the Emax came to 110%.

In the case of `CC(=O)c1cn(CCCN2CCC(Oc3cccc(Cl)c3)CC2)c2c(Cl)cccc12`, the Emax amounted to 83%.

For the molecule `CCCCC1CCN(CCCn2cc(C(C)=O)c3cccc(OC)c32)CC1`, the Emax came to 116%.

The same assay, now with this note: read-out: RSAT Eff(%).
Consider `COc1cccc2c(C(=O)c3ccccc3)cn(CCCN3C4CCC3CC(Oc3ccc(F)cc3)C4)c12` (stereo not drawn), for which the Emax was 106%.

For the molecule `COc1cccc2c(C(=O)Cc3ccccc3)cn(CCCN3C4CCC3CC(CC(=O)c3ccc(Cl)cc3)C4)c12` (stereo not drawn), the Emax is 167%.

With `COc1cccc2c(C(=O)c3ccccc3)cn(CCCN3CCN(CCOc4ccccc4)CC3)c12`, the Emax was found to be 98%.

As for `COc1cccc2c(C(=O)Cc3ccccc3)cn(CCCN3CCN(CCOc4ccccc4)CC3)c12`, the Emax is 99%.

Turning to `CCCCC1CCN(CCCn2cc(C(=O)NCc3cccc(C)c3)c3cccc(OC)c32)CC1`, the Emax was determined as 72%.

Turning to `CCc1cccc2c(C(C)=O)cn(CCCN3C4CCC3CC(CCc3ccc(Cl)cc3)C4)c12` (stereo not drawn), the Emax came to 95%.
